Assay results: patent publication US20240301409A1, “Chemically Modified Small Activating RNA” (RACTIGEN THERAPEUTICS, priority 2021, published 2024)
Entries after “also recorded” stand apart in the source; their conditions may differ. Where two headings read alike, the source gives them in different places. Oligonucleotides are written 5' to 3', each unit as a sugar letter and its base; * is a phosphorothioate linkage, no mark a phosphodiester; rarer units and linkages stand in square brackets, end groups in braces. Plain capitals give the bases only. d = 2'-deoxy (DNA); m = 2'-O-methyl; r = 2'-OH (RNA); f = 2'-fluoro

How the values were obtained:
p21 gene [1] = test: p21 mRNA expression by RT-qPCR in Ku-7-LG cells; assay type: cell-based, human; settings: 10 nM, 72 hours, compared with unmodified Rag1-40 unless worded otherwise
Description: (§1) Ku-7-LG and T24 cells were transfected with the indicated saRNA at a final concentration of 10 nM for 3 days. After transfection, the RNA was extracted with the Qiagen RNeasy kit. After reverse transcription, the ABI 7500 fast real-time PCR system was used for qPCR amplification. The GAPDH gene was amplified as an internal reference. […] Dashed line indicates duplex Rag1-40 with no chemical modification in comparison, and the values above the line indicate stronger activity. The control was blank transfection without oligonucleotide. dsCon2 is transfected with a double-stranded scramble RNA. The value of the ordinate represents the mean±SD of 2 repeated treatments.
(§2) The control and dsCon2 were blank transfection and scramble dsRNA transfection, respectively. The values in the ordinate represent the mean±SD of 2 repeated treatments.
(§3) Human bladder cancer cells Ku-7-LG (ATCC), J82 (ATCC) and T24 (ATCC) were cultured in McCoy medium (Gibco) comprising 10% calf serum (Sigma-Aldrich) and 1% penicillin/Streptomycin (Gibco). Cells were cultured at 37° C. under 5% CO2. Ku-7-LG, J82 and T24 cells were plated into 12-well plates at 10×10^4 cells per well, transfected with the small RNA at a concentration of 10 nM (unless otherwise specified) for three days, using RNAiMax (Invitrogen, Carlsbad, CA) according to the manufacturer's instructions. Two replicate wells were set for each treatment.
(§4) After transfection, the medium was discarded and to each well 500 μl cell lysate was added and incubated at room temperature for 5 minutes. RNA was extracted with the Qiagen RNeasy kit, and after reverse transcription, qPCR analysis was performed on the ABI 7500 Fast Real-time PCR system (Applied Biosystems). Each sample was amplified in 3 replicate wells.
(§5) The PCR reaction conditions are: 95° C. for 30 seconds, 95° C. for 5 seconds, 60° C. for 30 seconds, and 40 cycles of amplification. The GAPDH gene was amplified as an internal reference at the same time. p21 was amplified with the p21F1/R1 primer pair, and the specific sequences of the amplification primers are shown in Table 1.
(§6) In order to calculate the expression value (Erel) of p21 (target gene) of a saRNA transfection sample relative to the control treatment, Formula 1 is used to input the Ct values of the target gene and the internal reference gene for calculation.
(§7) wherein, CtTm is the Ct value of the target gene from the control treatment sample; CtTs is the Ct value of the target gene from the saRNA treated sample; CtRm is the Ct value of the internal reference gene from the control treatment sample; and CtRs is the Ct value of the internal reference gene from the saRNA treated sample.
(§8) The main purpose of introducing chemical modifications to regulatory oligonucleotides of a gene is to improve their pharmaceutical properties, including enhancing in vivo stability and mitigating off-target effects (e.g., sequence-dependent targeting of unrelated genes, sequence-dependent or independent immune stimulation), while maintaining their gene regulatory capacity (gene knockdown or activation). To assess the effect of chemical modification on the RNAa activity of saRNA on the p21 gene, 10 nM unmodified (Rag1-40) and modified (Rag1-40-1 to Rag1-40-34) duplexes were transfected into Ku-7-LG and T24 cells, respectively. After 72 hours, the mRNA expression level of p21 was assessed by RT-qPCR. All duplexes induced p21 mRNA expression in all […] at least double that of the control.
(§9) In order to further evaluate the expression level of p21 mRNA after the different durations of treatment by the chemically modified saRNA duplexes, two saRNAs (RAG1-40-31 and RAG1-40-53) were randomly selected from the above chemically modified saRNA duplexes for detection. RAG1-40-31 and RAG1-40-53 were transfected into Ku-7-LG and T24 cells at a final concentration of 10 nM, for 1, 2, 3, 4, 7 and 9 days, respectively. Each treatment was set up in duplicate. […]

p21 gene [2] = test: p21 mRNA expression by RT-qPCR in T24 cells; assay type: cell-based, human; settings: 10 nM, 72 hours, compared with unmodified Rag1-40 unless worded otherwise
Description: as §1, §2, §3, §4, §5, §6, §7, §8, §9

Ku-7-LG cells = test: Cellular proliferation assay (CCK8) in Ku-7-LG cells; assay type: cell-based, human; settings: 10 nM, 72 hours
Description: Ku-7-LG cells were transfected with the indicated saRNA at 10 nM for 3 days. […] The closer the luciferase value is to the control group, the lower the probability of off-target effects of saRNA is. Control and dsCon2 were blank transfection and double-stranded scramble RNA transfection, respectively. The value of the ordinate represents the mean±SD of two repeated treatments.
(§10) After the transfection, the number of viable cells was detected with a CCK8 kit, and plotted as the percentage of the blank control treatment group. […] A transfection sample without oligonucleotide served as a blank control. Non-specific duplex (dsCon) transfected sample served as a negative control. Data are presented as mean±SD of at least two independent experiments. The values below the dashed line indicate stronger growth inhibitory activity compared to duplex Rag1-40 without chemical modification.
as §3
(§11) Cells were plated in a 96-well plate at 2˜4×10^3 cells/well, cultured overnight, and transfected with the oligonucleotide duplexes. Three days after transfection, CCK8 (Dojindo) was used to detect cellular proliferation following manufacturer's instructions. The experimental steps are briefly described as follows: 10 μL of CCK8 solution was added to each well, incubated at 37° C. for 1 hour, and then the absorbance at 450 nm was measured using a microplate reader.
(§12) It is known that p21 induction by saRNA is that a variety of tumor suppressor factors such as p21 protein suppress the proliferation of cancer cells. To evaluate the effect of chemically modified saRNAs on the function of cancer cells, cells (Ku-7-LG and T24) were transfected with 10 nM unmodified and modified saRNAs for 72 hours, and the cellular proliferation was determined by CCK8. […] Furthermore, there was a correlation between RNA activating activity (FIGS. 7A-7B) and suppression of cellular proliferation activity (FIGS. 8A-8B). Strong p21 activators are usually also strong cytostatics.

T24 cells = test: Cellular proliferation assay (CCK8) in T24 cells, alone and combined with Mitomycin C or valrubicin; assay type: cell-based, human; settings: T24 cells, 10 nM, 72 hours, CCK8
Description: as §10
T24 cells were transfected with RAG1-40-31 at concentrations of 0.1, 0.5, 1, 5, 10, 25 and 50 nM for 24 hours, and then Mitomycin C was added at concentrations of 1, 10, 100, 1000 and 10000 nM. The combined treatment was carried out with concentrations in pairs. After treatment, the cellular proliferation was detected by CCK8 kit. FIGS. 16A-16B show the relative proliferation proportion of T24 cells after the combined treatment with chemically modified saRNA RAG1-40-31 and valrubicin. […] Control and DMSO are the blank transfection control and the solvent for dilution control, respectively.
T24 cells were transfected with RAG1-40-31 at concentrations of 0.1, 0.5, 1, 5, 10, 25 and 50 nM for 24 hours, and then valrubicin at concentrations of 1, 10, 100, 1000 and 10000 nM was added. The combined treatment was carried out with concentrations in pairs. After treatment, the cellular proliferation was detected by CCK8 kit.
as §3, §11, §12

RNase A = molecular target: T1, RNase A (Bos taurus, UniProt P61823)
T1 sequence (P61823 27-150): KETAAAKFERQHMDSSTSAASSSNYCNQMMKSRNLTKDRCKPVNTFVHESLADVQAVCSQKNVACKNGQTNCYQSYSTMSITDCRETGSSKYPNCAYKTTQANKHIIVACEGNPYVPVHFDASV

[3] = test system: Rag1-40 target sequence in the 3′ UTR of firefly luciferase, COS-1 cells
[4] = test system: Rag1-40 target sequence in the 3′ UTR of firefly luciferase, COS-1 cells; test: Analysis of off-target effects (pOff-Target dual luciferase reporter in COS-1 cells); settings: lysed 48 hours after transfection, luciferase activity

Substance	RNA activation activity (p21 mRNA), in words (p21 gene [1])	RNA activation activity (p21 mRNA), in words (p21 gene [2])	suppression of cellular proliferation, in words (Ku-7-LG cells)	suppression of cellular proliferation, in words (T24 cells)	degradation of duplex at 96 hours (RNase A)	off-target effect compared to unmodified Rag1-40, in words [3]	off-target effect compared to unmodified Rag1-40, in words [4]
Rag1-40-32: saRNA duplex: sense fCfCAACUCAUUCUCCAAG*U*C (SEQ ID NO 16); antisense fUactfUGGAGAAfUGAGfUfUGG*fC*A (SEQ ID NO 13) (sense fCfCrArArCrUrCrArUrUrCrUrCrCrArArG*rU*rC; antisense fUdAdCdTfUrGrGrArGrArAfUrGrArGfUfUrGrG*fC*rA)	attenuated activity; also recorded: weak RNA activating activity	reduced activity; also recorded: attenuated activity	weak cellular proliferation inhibitory activity; also recorded: weakens the activity of the saRNA duplex to suppress cellular proliferation	weakens the activity of the saRNA duplex to suppress cellular proliferation	little or no signs of degradation	increased off-target effects	–
Rag1-40-16: saRNA duplex: sense fCfCAACUCAUUCUCCAAGfUfC (SEQ ID NO 14); antisense fUactfUGGAGAAfUGAGfUfUGG*fC*A (SEQ ID NO 13) (sense CCAACUCAUUCUCCAAGUC; antisense UACTUGGAGAAUGAGUUGGCA; 2'-F, DNA residues, phosphorothioate modifications; modified_base (1)..(19) (1,2,18,19)=2′-fluoro; modified_base (1)..(17) (1,2,9,13,14,17)=2′-fluoro; (1)..(21) (1,5,6,7,8,9,10,11,12,13,14,15,1,61,7,18,19,20, 21)=RNA; (2)..(4) (2,3,4)=DNA; modified_base (16)..(18) (16,17,18)=phosphorothioate (PS) backbone modification)	–	–	weakens the activity of the saRNA duplex to suppress cellular proliferation	weakens the activity of the saRNA duplex to suppress cellular proliferation	little or no signs of degradation	increased off-target effects	–
Rag1-40-33: saRNA duplex: sense CCAACUCAUUCUCCAAGUC (SEQ ID NO 17); antisense UactUGGAGAAUGAGUUGGCA (SEQ ID NO 18) (antisense rUdAdCdTrUrGrGrArGrArArUrGrArGrUrUrGrGrCrA; sense: unmodified RNA)	attenuated activity; also recorded: weak RNA activating activity	reduced activity; also recorded: attenuated activity	weak cellular proliferation inhibitory activity	–	–	–	mitigated or similar off-target effects
Rag1-40-11: saRNA duplex: sense fCfCAACUCAUUCUCCAAGfUfC (SEQ ID NO 14); antisense fUmAfCfUfUmGmGmAmGmAmAfUmGmAmGfUfUmGmGfCmA (SEQ ID NO 8) (sense fCfCrArArCrUrCrArUrUrCrUrCrCrArArGfUfC)	–	reduced activity	negatively affects proliferation suppression activity	negatively affects proliferation suppression activity	little or no signs of degradation	completely inhibited	–
Rag1-40-34: saRNA duplex: sense CCAACUCAUUCUCCAAGUC (SEQ ID NO 17); antisense UacttggAGAAUGAGUUGGCA (SEQ ID NO 19) (antisense rUdAdCdTdTdGdGrArGrArArUrGrArGrUrUrGrGrCrA; sense: RNA, phosphodiester; further chemistry not fully specified)	attenuated activity; also recorded: weak RNA activating activity	reduced activity; also recorded: attenuated activity	weak cellular proliferation inhibitory activity	–	–	–	mitigated or similar off-target effects
